Values quoted from earlier work, collected in patent US20210346453A1, “COMPOSITIONS AND METHODS FOR TREATMENT OF COVID-19” (Cognitive Clarity Inc., priority 2020, published 2021).

Columns and labels:
[1] = tested on: brain plaques and tangles; conditions: aging brain
[2] = tested on: inflammation in brain (astrocytosis and microgliosis); conditions: plaque-producing transgenic mice, within 3 months of treatment
[3] = tested on: COVID-19; conditions: compared to placebo

Compound	brain plaques and tangles [1]	reduction of inflammation in brain (astrocytosis and microgliosis) [2]	risk of being hospitalized or visiting the Emergency Room within 28 days after treatment [3]
Oc1cc(O)c2c(c1)O[C@H](c1ccc(O)c(O)c1)[C@H](O)[C@H]2c1c(O)cc(O)c2c1O[C@H](c1ccc(O)c(O)c1)[C@H](O)C2 [Proanthocyanidin B2, epicatechin-4β-8-epicatechin]	inhibit and reduce	69%-80.3%	
Oc1ccc([C@H]2Oc3cc(O)cc(O)c3[C@H](c3c(O)cc(O)c4c3O[C@H](c3ccc(O)c(O)c3)[C@H](O)C4)[C@H]2O)cc1 [epiafzelechin-4β-8-epicatechin]	inhibit and reduce		
Oc1cc(O)c2c(c1)O[C@H](c1ccc(O)c(O)c1)[C@@H](O)[C@@H]2c1c(O)cc(O)c2c1O[C@H](c1ccc(O)c(O)c1)[C@H](O)C2 [proanthocyanidin B4, catechin-4-α-8-epicatechin]	inhibit and reduce		
Oc1cc(O)c2c(c1)O[C@H](c1ccc(O)c(O)c1)[C@H](O)[C@H]2c1c(O)cc(O)c2c1O[C@H](c1ccc(O)c(O)c1)[C@H](O)[C@H]2c1c(O)cc(O)c2c1O[C@H](c1ccc(O)c(O)c1)[C@H](O)C2 [proanthocyanidin C1, epicatechin-4β-8-epicatechin-4β-8-epicatechin]	inhibit and reduce		
Bamlanivimab: monoclonal antibody treatment made by Eli Lilly			significantly reduce
